{"source": "patent US12702657B2", "about": "“Treatment and prevention of dengue disease” (Janssen Pharmaceuticals, Inc., priority 2019, dated 2026)", "key": {"DENV-2/Rega lab strain [1]": {"system": "DENV-2/Rega lab strain", "test": "AG129 mouse viremia model, high viral input (10^6 PFU), pre-exposure prophylaxis", "format": "in vivo, AG129 mice", "conditions": "day 3 p.i.; for viral load reduction in serum / median viral load reduction in serum: 10^6 PFU, vs vehicle", "from_the_text": "The AG129 mouse model is a well-established model to study the antiviral effect of compounds against DENV in vivo (Zompi and Harris, 2012). These 129/Sv mice are deficient for both IFN-α/β and IFN-γ receptors, enabling peripheral viral replication upon intravenous (i.v.) or subcutaneous (s.c.) infection with DENV (Johnson and Roehrig, 1999). […]\nTotal RNA from serum was extracted using the NucleoSpin RNA virus kit according to the manufacturer's protocol (Macherey-Nagel, Düren, Germany). The viral RNA load was determined by one-step TaqMan RT-qPCR (master mix from Eurogentec, Seraing, Belgium). […]\nIn a similar setup as for the b.i.d. dosing studies, the in vivo efficacy was studied in the AG129 standard viremia model against DENV-2 with high viral inoculum and with compound (a) q.d. administration. Animals were i.p. infected with 10^6 PFU DENV-2/Rega lab strain in a volume of 200 μL. Animals were treated by administering compound (a) by oral gavage with a first administration at one hour prior to infection. The treatment continued for three consecutive days with one administration of compound (a) every 24 hours (once a day or q.d.). At day 3 post infection (p.i.), the mice were euthanized, and blood was collected (FIG. 3). The viral RNA load was determined as outlined in example 1.\nThe mice were divided in 5 groups (n=8/group) representing the following treatment regimens: • (i) Vehicle 80%/20% PEG400/H2O, • (ii) reference compound (2′CMC, 50 mg/kg per dose, b.i.d., s.c.), • (iii) compound (a): 0.3 mg/kg/dose q.d. • (iv) compound (a): 3 mg/kg/dose q.d. • (v) compound (a): 30 mg/kg/dose q.d. […]\nThe mice were divided in several groups (n=8/group for the viremia study and n=10/group for the survival study) representing the following treatment regimens: • (i) vehicle, 80%/20% PEG400/H2O • (ii) compound (b): 30 mg/kg/dose b.i.d. • (iii) compound (b): 10 mg/kg/dose b.i.d. • (iv) compound (b): 3 mg/kg/dose b.i.d. • (v) compound (b): 1 mg/kg/dose b.i.d."}, "DENV-2/Rega lab strain [2]": {"system": "DENV-2/Rega lab strain", "test": "AG129 mouse viremia model, low viral input (10^2 PFU), viral load kinetics, pre-exposure prophylaxis", "format": "in vivo, AG129 mice", "conditions": "for median serum viral load over all 11 days: LOD=2.59 log10 copies/mL", "description": "In this experiment, lower viral inputs were used (10^2 PFU), compared with the standard viremia experiments with a high viral input (10^6 PFU). 10^2 PFU was selected as it was the lowest viral load leading to a Dengue infection in the mouse model. Using a lower viral input still results in 100% infection of the mice, but the peak viral load is postponed with 1 to 2 days, which more closely mimics a natural human infection (Clapham et al., 2014 and Sim et al., 2015). The mice were treated during 6 consecutive days.\nAnimals were infected i.p. with 10^2 PFU DENV-2/Rega lab strain and treated for six consecutive days twice daily with compound (a) by oral gavage (FIG. 5).\nThe mice were divided in four treatment groups (n=16/group) representing the following treatment regimens: • (i) Vehicle 80%/20% PEG400/H2O, • (ii) compound (a): 10 mg/kg/dose b.i.d. p.o. • (iii) compound (a): 1 mg/kg/dose b.i.d. p.o. • (iv) compound (a): 0.1 mg/kg/dose b.i.d. p.o.\nDaily blood samples were collected to follow the viral load over time. Blood collection, for viral RNA load detection, was performed in two alternating sub-groups of mice. Each sub-group comprised half of the mice (n/2=8) from each of the treatment groups (i) to (iv). Blood was collected from a first sub-group at day 1, 3, 5 and 8 p.i. and from a second sub-group at day 2, 4, 6 and 11 p.i. At day 8 p.i., mice of the first sub-group were sacrificed while those of the second sub-group were sacrificed at day 11 p.i. […]\nAlternating sub-groups were used to enable daily blood collections. Blood for viral RNA load detection was collected from mice in two alternating sub-groups. Each sub-group comprised half of the mice (n/2=8) from each of the treatment groups (i-vi). Blood was collected from a first sub-group at days 1, 3, 5 and 8 p.i. and from a second sub-group at days 2, 4, 6 and 11 p.i. Blood collection was always performed just before the next administration of the compound. At day 8 p.i., half of the mice in each treatment group (n=8/group) were sacrificed. The remaining mice in each treatment group (n=8/group) were sacrificed at day 11 p.i (FIG. 16 Y)."}}, "data": [{"compound": "COc1cc(NC(C(=O)c2c[nH]c3ccc(OC(F)(F)F)cc23)c2ccc(Cl)cc2OC)cc(S(C)(=O)=O)c1", "note": "(stereo not drawn) [compound (a)]", "values": [{"measurement": "viral load reduction in serum", "setting": "DENV-2/Rega lab strain [1]; 0.1 mg/kg/dose b.i.d. p.o.", "result": 0.47, "unit": "log10 copies/mL"}, {"measurement": "median viral load reduction in serum", "setting": "DENV-2/Rega lab strain [1]; 0.3 mg/kg/dose q.d. p.o.", "result": 0.7, "unit": "log10 copies/mL"}, {"measurement": "median viral load reduction in serum", "setting": "DENV-2/Rega lab strain [1]; 3 mg/kg/dose q.d. p.o.", "result": 3.1, "unit": "log10 copies/mL"}, {"measurement": "viral load reduction in serum", "setting": "DENV-2/Rega lab strain [1]; 30 mg/kg/dose b.i.d. p.o.", "result": 4.4, "unit": "log10 copies/mL"}, {"measurement": "median viral load reduction in serum", "setting": "DENV-2/Rega lab strain [1]; 30 mg/kg/dose q.d. p.o.", "result": 4.5, "unit": "log10 copies/mL"}, {"measurement": "viral load reduction in serum compared with the vehicle-treated group, significance", "setting": "DENV-2/Rega lab strain [1]; all doses except 0.1 (0.3, 1, 3, 10, 30 mg/kg/dose b.i.d.), p<0.001", "result": "significant viral load reduction"}, {"measurement": "delay of peak viral load versus vehicle", "setting": "DENV-2/Rega lab strain [2]; 0.1 mg/kg/dose b.i.d. p.o., 6 days, 10^2 PFU", "result": "~ 1 day"}, {"measurement": "viral load reduction compared with vehicle", "setting": "DENV-2/Rega lab strain [2]; 0.1 mg/kg/dose b.i.d. p.o., day 5, 10^2 PFU", "result": 0.50, "unit": "log10 copies/mL"}, {"measurement": "viral load over time", "setting": "DENV-2/Rega lab strain [2]; 0.1 mg/kg/dose q.d. p.o., 10^2 PFU", "result": "comparable to the vehicle-treated viral load curve"}, {"measurement": "viral load reduction compared to vehicle-treated mice", "setting": "DENV-2/Rega lab strain [2]; 0.3 mg/kg/dose q.d. p.o., day 5, 10^2 PFU", "result": 1.6, "unit": "log10 copies/mL"}, {"measurement": "course of viral load after day 5", "setting": "DENV-2/Rega lab strain [2]; 0.3 mg/kg/dose q.d. p.o., up to day 11, 10^2 PFU", "result": "no further decline in viral load up to day 11"}, {"measurement": "median serum viral load over all 11 days", "setting": "DENV-2/Rega lab strain [2]; 0.6 mg/kg/dose q.d. p.o., 6 days, 10^2 PFU", "result": "undetectable levels"}, {"measurement": "viral load in the mice over all the days", "setting": "DENV-2/Rega lab strain [2]; 1 mg/kg/dose b.i.d. p.o., 6 days, 10^2 PFU", "result": "undetectable levels"}, {"measurement": "median serum viral load over all 11 days", "setting": "DENV-2/Rega lab strain [2]; 1 mg/kg/dose q.d. p.o., 6 days, 10^2 PFU, 1 viral rebound at day 8", "result": "undetectable levels"}, {"measurement": "median viral load at viral rebound", "setting": "DENV-2/Rega lab strain [2]; 1 mg/kg/dose q.d. p.o., day 8, 10^2 PFU", "result": 3.78, "unit": "log10 copies/mL"}, {"measurement": "median serum viral load over all 11 days", "setting": "DENV-2/Rega lab strain [2]; 3 mg/kg/dose q.d. p.o., 6 days, 10^2 PFU", "result": "undetectable levels"}, {"measurement": "viral load in the mice over all the days", "setting": "DENV-2/Rega lab strain [2]; 10 mg/kg/dose b.i.d. p.o., 6 days, 10^2 PFU", "result": "undetectable levels"}, {"measurement": "median serum viral load over all 11 days", "setting": "DENV-2/Rega lab strain [2]; 10 mg/kg/dose q.d. p.o., 6 days, 10^2 PFU", "result": "undetectable levels"}, {"measurement": "median serum viral load over all 11 days", "setting": "DENV-2/Rega lab strain [2]; 30 mg/kg/dose q.d. p.o., 6 days, 10^2 PFU", "result": "undetectable levels"}]}, {"compound": "COc1cc(NC(C(=O)N2CCc3ccc(OC(F)(F)F)cc32)c2ccc(Cl)cc2)cc(OCCCC(=O)O)c1", "note": "(stereo not drawn) [compound (b)]", "values": [{"measurement": "viral load reduction in serum", "setting": "DENV-2/Rega lab strain [1]; compound (b) 1 mg/kg per dose b.i.d. p.o.", "result": 0.70, "unit": "log10 copies/mL"}, {"measurement": "viral load reduction in serum", "setting": "DENV-2/Rega lab strain [1]; compound (b) 30 mg/kg per dose b.i.d. p.o.", "result": 3.8, "unit": "log10 copies/mL"}, {"measurement": "viral load reduction compared with the vehicle-treated group, significance", "setting": "DENV-2/Rega lab strain [1]; compound (b), all four doses (1, 3, 10, 30 mg/kg per dose b.i.d.), p<0.05", "result": "significant viral load reduction"}, {"measurement": "reduction of viral RNA levels at peak viremia", "setting": "DENV-2/Rega lab strain [2]; compound (b) 0.3 mg/kg b.i.d. p.o., 10^2 PFU", "result": 0.8, "unit": "log10"}, {"measurement": "reduction of viral RNA levels at peak viremia", "setting": "DENV-2/Rega lab strain [2]; compound (b) 1 mg/kg b.i.d. p.o., 10^2 PFU", "result": 1.8, "unit": "log10"}, {"measurement": "viral RNA levels in serum", "setting": "DENV-2/Rega lab strain [2]; compound (b) 3 mg/kg/dose b.i.d. p.o., 6 days, 10^2 PFU", "result": "undetectable levels"}, {"measurement": "viral RNA levels in serum", "setting": "DENV-2/Rega lab strain [2]; compound (b) 10 mg/kg/dose b.i.d. p.o., 6 days, 10^2 PFU", "result": "undetectable levels"}, {"measurement": "viral RNA levels in serum", "setting": "DENV-2/Rega lab strain [2]; compound (b) 30 mg/kg/dose b.i.d. p.o., 6 days, 10^2 PFU", "result": "undetectable levels"}]}]}
